{"source": "patent US20230227466A1", "about": "“SUBSTITUTED THIENOPYRIMIDINES THAT INTERACT WITH THE RAS SUPERFAMILY FOR THE TREATMENT OF CANCERS, INFLAMMATORY DISEASES, RASOPATHIES, AND FIBROTIC DISEASE” (SHY Therapeutics, LLC, priority 2020, published 2023)"}
{"test_system": "ERK1/2 phosphorylation in Panc-1 cells", "experiment": "Western ERK1/2 cell-based phosphorylation assay", "design": "species or system human", "settings": "at 10 μM, values in brackets < > are activation %, not inhibition", "method_in_brief": "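Western blot with anti-phospho-p44/42 (Thr202/Tyr204) measured ERK1/2 phosphorylation after 15 min EGF (1.5 ng/ml) stimulation. Beforehand, serum-starved (0.5% FBS, overnight) Panc-1 cells received compounds for 6 h at 37 °C, at 10 μM final in 0.3% DMSO or as dilution series for IC50.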"}
{"smiles": "CO[C@H]1CC[C@@H](Nc2nc(-c3nccn3C)nc3sc(-c4cn(C)cn4)c(-c4ccccc4)c23)C1", "note": "(racemic) [Example 3, Rac-N-((1R,3S)-3-methoxycyclopentyl)-2-(1-methyl-1H-imidazol-2-yl)-6-(1-methyl-1H-imidazol-4-yl)-5-phenylthieno[2,3-d]pyrimidin-4-amine]", "% inh of ERK1/2 phosphorylation in PANC-1": "A (1-25% inhibition)"}
{"smiles": "COc1ccn2c(-c3nc(O)c4scc(-c5ccccn5)c4n3)ncc2c1", "note": "[Compound 85, 2-(7-Methoxyimidazo[1,5-a]pyridin-3-yl)-7-(pyridin-2-yl)thieno[3,2-d]pyrimidin-4-ol]", "% inh of ERK1/2 phosphorylation in PANC-1": "0 (0% inhibition)"}
{"smiles": "COc1ccc2cnc(-c3nc(O)c4scc(-c5ccccn5)c4n3)n2c1", "note": "[Compound 86, 2-(6-Methoxyimidazo[1,5-a]pyridin-3-yl)-7-(pyridin-2-yl)thieno[3,2-d]pyrimidin-4-ol]", "% inh of ERK1/2 phosphorylation in PANC-1": "0 (0% inhibition)"}
{"smiles": "COCCn1c(-c2nc(O)c3scc(-c4ccccn4)c3n2)nc2ccccc21", "note": "[Compound 87, 2-(1-(2-Methoxyethyl)-1H-benzo[d]imidazol-2-yl)-7-(pyridin-2-yl)thieno[3,2-d]pyrimidin-4-ol]", "% inh of ERK1/2 phosphorylation in PANC-1": "A (1-25% inhibition)"}
{"smiles": "Oc1nc(-c2ccncn2)nc2c(-c3ccccn3)csc12", "note": "[Compound 88, 7-(Pyridin-2-yl)-2-(pyrimidin-4-yl)thieno[3,2-d]pyrimidin-4-ol]", "% inh of ERK1/2 phosphorylation in PANC-1": "<B>"}
{"smiles": "Oc1nc(-c2cccnc2)nc2c(-c3ccccn3)csc12", "note": "[Compound 89, 7-(Pyridin-2-yl)-2-(pyridin-3-yl)thieno[3,2-d]pyrimidin-4-ol]", "% inh of ERK1/2 phosphorylation in PANC-1": "A (1-25% inhibition)"}
{"smiles": "Cn1ccc(-c2nc(O)c3scc(-c4ccccn4)c3n2)n1", "note": "[Compound 90, 2-(1-Methyl-1H-pyrazol-3-yl)-7-(pyridin-2-yl)thieno[3,2-d]pyrimidin-4-ol]", "% inh of ERK1/2 phosphorylation in PANC-1": "0 (0% inhibition)"}
{"smiles": "Cn1nccc1-c1nc(O)c2scc(-c3ccccn3)c2n1", "note": "[Compound 91, 2-(1-Methyl-1H-pyrazol-5-yl)-7-(pyridin-2-yl)thieno[3,2-d]pyrimidin-4-ol]", "% inh of ERK1/2 phosphorylation in PANC-1": "0 (0% inhibition)"}
{"smiles": "Cc1cnc(-c2nc(O)c3scc(-c4ccccn4)c3n2)s1", "note": "[Compound 92, 2-(5-Methylthiazol-2-yl)-7-(pyridin-2-yl)thieno[3,2-d]pyrimidin-4-ol]", "% inh of ERK1/2 phosphorylation in PANC-1": "0 (0% inhibition)"}
{"smiles": "COCCn1ccnc1-c1nc(O)c2scc(-c3ccncc3)c2n1", "note": "[Compound 94, 2-(1-(2-Methoxyethyl)-1H-imidazol-2-yl)-7-(pyridin-4-yl)thieno[3,2-d]pyrimidin-4-ol]", "% inh of ERK1/2 phosphorylation in PANC-1": "0 (0% inhibition)"}
{"smiles": "COc1nc(-c2nccn2C)nc2c(-c3ncccc3F)csc12", "note": "[Compound 95, 7-(3-Fluoropyridin-2-yl)-4-methoxy-2-(1-methyl-1H-imidazol-2-yl)thieno[3,2-d]pyrimidine]", "% inh of ERK1/2 phosphorylation in PANC-1": "0 (0% inhibition)"}
{"smiles": "CO[C@H]1C[C@@H](Nc2nc(-c3nccn3C)nc3sc(-c4cn(C)cn4)c(-c4ccccc4)c23)C1", "note": "[Example 2, N-((1s,3s)-3-methoxycyclobutyl)-2-(1-methyl-1H-imidazol-2-yl)-6-(1-methyl-1H-imidazol-4-yl)-5-phenylthieno[2,3-d]pyrimidin-4-amine]", "% inh of ERK1/2 phosphorylation in PANC-1": "C (51-75% inhibition)"}
{"test_system": "PANC-1 pancreatic cancer cell line (KRAS G12D)", "experiment": "Cell proliferation assay (CellTiter 96 Aqueous One)", "type": "cell-based", "settings": "Homo sapiens; PANC-1, 2-4 days, 10% FBS", "method_in_brief": "(§1)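 After overnight attachment, compounds are added (10 μM final or serial dilutions) and left 2–4 days, with viability then measured by MTS.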", "units": {"IC50": "µM"}}
{"smiles": "COCCn1c(-c2nc(O)c3scc(-c4ccccn4)c3n2)nc2ccccc21", "note": "[Compound 87, 2-(1-(2-Methoxyethyl)-1H-benzo[d]imidazol-2-yl)-7-(pyridin-2-yl)thieno[3,2-d]pyrimidin-4-ol]", "IC50": "< 0.4"}
{"test_system": "SW-620 colorectal cancer cell line (KRAS G12V)", "experiment": "Cell proliferation assay (CellTiter 96 Aqueous One)", "type": "cell-based", "settings": "Homo sapiens; SW-620, 2-4 days, 10% FBS", "method_in_brief": "as §1", "units": {"IC50": "µM"}}
{"smiles": "COCCn1c(-c2nc(O)c3scc(-c4ccccn4)c3n2)nc2ccccc21", "note": "[Compound 87, 2-(1-(2-Methoxyethyl)-1H-benzo[d]imidazol-2-yl)-7-(pyridin-2-yl)thieno[3,2-d]pyrimidin-4-ol]", "IC50": "< 0.4"}
